Test results taken from patent US4089947A, “Antibiotic compositions containing validamycin compounds” (priority 1976, dated 1978).

Legend:
[1] = Acute toxicity for Oryzias latipes (median lethal dose, 48 hours); format: in vivo; settings: medaka, leaving in water solution, read-out: TLm
Method: (§1) The toxicity of the antibiotics can be confirmed, for instance, by administering each of the validamycins C, D, E and F, and validoxylamines A and B, intravenously to mice and measuring the LD50 value, or by measuring the median lethal dose (48 hours) for Oryzias latipes.

plant diseases = assay: Control of plant diseases (general statement); format: in vivo; settings: for controlling effect against plant diseases, for example, the sheath blight of the rice plant: application in vivo; for effectiveness against sheath blight and stem rot of rice plant, damping off and sclerotial blight of vegetables, flowering plants and lumber seedlings: in vivo
Solubilities = format: physicochemical
Pellicularia sasakii [2] = assay: Abnormal branching of hyphal tips of Pellicularia sasakii (agar dilution bioassay); format: cell-based; settings: for highest dilution factor that causes an abnormal branching at the hyphal tips of Pellicularia sasakii: 1 mg./ml. aqueous solution as stock solution; for dilution unit (maximum dilution which produces abnormal branching): aqueous solution containing 1000 γ/ml., 27° C for 40 hours
Method: Therefore, the bioassay of the antibiotics should be conducted in the following manner.
Pellicularia sasakii is used as the test organism employing plain agar as the assay medium. The test organism is cultivated on a potato (sucrose) agar slant for 2 to 5 days, and the resulting culture is used to inoculate at the center of a 9-cm Petri dish plate of modified Pfeffer's medium, which is then incubated at 27° C for 2 days. By the end of this period, the mycelium will have spread over the entire surface of the plate. The growth on the circumference about 3 to 3.5 cm in radius from the center is cut out with a cork borer and the agar disc thus obtained is used as the inoculum.
A serial dilution series of agar plants containing varying concentrations of the antibiotics is prepared in the same manner as a conventional agar dilution method.
A glass disc of 8 mm in diameter and about 0.2 mm thick, is placed in the center of each of the aforementioned dilution series of agar plates, and the agar disc inoculum is then placed on the glass disc. After incubation at 27° C for 40 hours, the result is evaluated. […] The term dilution unit means the value of maximum dilution which produces such abnormal branching.
Modified Pfeffer's medium, which is employed in this assay, has the following composition.
Before using the medium, the following vitamins are added in the specified amounts. (Weight per ml. of medium)
When a 1 mg./ml. aqueous solution of each of validamycins C, D, E and F and validoxylamines A and B is used as a stock solution, the highest dilution factor that causes an abnormal branching at the hyphal tips of Pellicularia sasakii is as follows.

Rhyzoctonia solani = assay: Cucumber damping-off control test; format: in vivo; settings: 14 days after sowing
Method: Cucumber damping-off control test
Rhyzoctonia solani is cultured on barley medium at 28° C for 5 days. A field soil sample is packed into clay pots 9 cm in diameter, which are then sterilized with steam. The chaff inoculum is evenly worked into the cover soil of each pot to the depth of about 3 cm, at the rate of 2g./pot. The pots are kept in an incubation chamber at 28° C for 4 days and, then, transferred to a greenhouse.
As per Experiment 1, the drug is sprayed onto the soil surface at the rate of 30 ml./6 pots/group.
Healthy seeds of cucumber (variety: Yonyo) are sown by burial in the pots immediately after treatment, at the rate of 10 seeds/pot. The pots are then placed in a greenhouse at 32°-28° C.
14 days after sowing, the results are evaluated against the following coefficients of lesion and the degrees of damage are calculated.
Coefficients of lesion (I)
0.5 : Root hairs alone are slightly affected.
1 : Aerial portions near soil surface and roots affected.
2 : Early stage of damping-off.
3 : Affected at germination; growth inhibited.
Degree of damage (%) =(Σ(nI))/3 × N × 100 wherein n means the number of samples corresponding to each coefficient of lesion and N means the total number of plants.

Pellicularia sasakii [3] = assay: Rice sheath blight control test, remedial; format: in vivo; settings: inoculation 3 days before application, untreated 34.4cm
Method: (§2) Rice sheath blight control test
(§3) Rice Plants (variety: Kinmaze) are planted in earthen pots 9 cm in diameter, 3 stocks per pot. Seedlings 80 days after potting are tested and 6 pots each of them are grouped.
(§4) Pathogenic fungi Pellicularia sasakii is cultivated on a plate of potato infusion-sugar-agar at 30°C for 48 hours, and its agar disc 10mm in diameter is cut out from a peripheral colony. The disc is inserted into the inside space of the leaf sheath near the soil surface, a disc per stem. The pots are kept in a PVC shelter at the temperature of 32°-25° C and the relative humidity of 100-70%. Inoculation is carried out immediately after the applied drug has been air-dried in the prophylactic test, and 3 days before application in the remedial test.
(§5) 10 days after application of the drug, the length of each stem from ground level to the upper edge of the lesion is directly measured.

bacteria and fungi = assay: Antimicrobial potency / growth inhibition in vitro; format: cell-based
Pellicularia sasakii [4] = assay: Rice sheath blight control test, preventive (prophylactic); format: in vivo; settings: 10 days after application, untreated 34.4cm
Method: as §2, §3, §4, §5

[5] = test system: men and beasts, as well as to fish; assay: Harmlessness to men, beasts and fish (general statement); settings: in vivo
useful plants = assay: Effect on useful plants (general statement); format: in vivo; settings: even when applied in a high concentration
Cladosporium fulvum = assay: Tomato leaf mold control test; format: in vivo; settings: 50 ppm; 14 days after inoculation; inoculated 3 days before application
Method: Tomato leaf mold control test
Tomato plants (variety: ponterosa) are planted in 12 cm in diameter pots, one plant per pot. The seedlings 50 days after potting are used, 6 pots/group.
Applied at the rate of 100 ml./6 pots/group as per Experiment 1.
Pathogenic fungi Cladosporium fulvum is cultured on a potato infusion-sucrose plate at 20° C for 14 days, and a suspension of conidia (5×10^5 /ml.) is prepared from the culture.
The plants are spray-inoculated with the suspension 3 days before application of the drug, at the rate of 5 ml. per pot. The pots are kept in an inoculation chamber at 25° C for 24 hours, and, then they are transferred to a greenhouse.
14 days after inoculation, the specific ratio of the average area of lesion in the leaves is measured.

[6] = pKa' (neutralization, in aqueous solution); format: physicochemical; settings: water
From the text: 3. The elementary analysis, the molecular formulas as calculated therefrom, pKa' values, neutralization equivalents (molecular weight) and optical rotation values are given in Table 2.

[7] = Acute toxicity in mice, intravenous injection; format: in vivo; settings: mouse, in vivo
Method: as §1

Compound | LC50 at 48 h [1] | controlling effect against plant diseases, for example, the sheath blight of the rice plant (plant diseases) | effectiveness against sheath blight and stem rot of rice plant, damping off and sclerotial blight of vegetables, flowering plants and lumber seedlings (plant diseases) | solubility in methanol (Solubilities) | highest dilution factor that causes an abnormal branching at the hyphal tips of Pellicularia sasakii (Pellicularia sasakii [2]) | dilution unit (maximum dilution which produces abnormal branching) (Pellicularia sasakii [2]) | Degree of damage (Rhyzoctonia solani; 5 ppm) | Degree of damage (Rhyzoctonia solani; 20 ppm) | Degree of damage (Rhyzoctonia solani; 80 ppm) | Remedial effect (percent of the average length of lesion/stem per control untreated) (Pellicularia sasakii [3]; 10 ppm) | Remedial effect (percent of the average length of lesion/stem per control untreated) (Pellicularia sasakii [3]; 30 ppm) | Remedial effect (percent of the average length of lesion/stem per control untreated) (Pellicularia sasakii [3]; 100 ppm) | Remedial effect (percent of the average length of lesion/stem per control untreated) (Pellicularia sasakii [3]; 300 ppm) | antimicrobial potency / growth inhibition of bacteria and fungi in vitro (bacteria and fungi) | Preventive effect (percent of the average length of lesion/stem per control untreated) (Pellicularia sasakii [4]; 3 ppm) | Preventive effect (percent of the average length of lesion/stem per control untreated) (Pellicularia sasakii [4]; 10 ppm) | Preventive effect (percent of the average length of lesion/stem per control untreated) (Pellicularia sasakii [4]; 30 ppm) | Preventive effect (percent of the average length of lesion/stem per control untreated) (Pellicularia sasakii [4]; 100 ppm) | Preventive effect (percent of the average length of lesion/stem per control untreated) (Pellicularia sasakii [4]; 300 ppm) | harmfulness to men and beasts, as well as to fish [5] | further results
OCC1=CC(NC2CC(CO)C(O)C(O)C2O)C(O)C(O)C1O (centres unmarked) [Validoxylamine A] | > 1000 µg/mL | excellent controlling effect | very effective | soluble | 100 | 100 dilution unit/ml. | 84% | 6% | 0% | 28% | 14% | 10% | 7% | no antimicrobial potency | 28% | 4% | 1% | 0% | 0% | substantially harmless | Remedial effect (percent of the average length of lesion/stem per control untreated) (Pellicularia sasakii [3]; 3 ppm): 83%; effect on germination, growth, yield and other features of useful plants (useful plants): do not substantially affect; Specific area of lesion (Cladosporium fulvum): 6%; pKa [6]: 6.2 ± 0.2; LD50 [7]: > 2000 mg/kg
OCC1=C[C@H](NC2C(O)C(O)C(O)C(CO)C2O)[C@H](O)[C@@H](O)[C@@H]1O (some centres unmarked) [Validoxylamine B] | > 1000 µg/mL | excellent controlling effect | very effective | more sparingly soluble | 10 | 10 dilution unit/ml. | 100% | 100% | 75% | 93% | 75% | 51% | 10% | no antimicrobial potency | 49% | 47% | 32% | 16% | 8% | substantially harmless | solubility in pyridine (Solubilities; pyridine): more sparingly soluble; effect on germination, growth, yield and other features of useful plants (useful plants): do not substantially affect; Specific area of lesion (Cladosporium fulvum): 36%; pKa [6]: 5 ± 0.2; LD50 [7]: > 2000 mg/kg
